The text below walks through data of patent publication US11510428B2, “Rebaudioside B and derivatives” (SWEET GREEN FIELDS INTERNATIONAL CO., LIMITED, priority 2011, dated 2022).

Assay [1] in a line: Taste comparison between RB and RA by experts (Example 7). The class given is in vivo, human. Conditions: 400 ppm aqueous solution. An excerpt:
Taste comparison between RB (prepared in Example 1, first part) and RA Purity of RA was 99.0% by HPLC and RB was 99.1% by HPLC.
RB sample: 400 ppm aqueous solution
RA sample: 400 ppm aqueous solution

Assay [2] in a line: General taste and sweetness statements on steviol glycosides, RA, RB and RB salt (background and description). The class given is in vivo.
Assay [3] can be described thus: Sensory evaluation after adding Reb D to samples of Example 9 (Example 10). In kind it is in vivo, human. The note with it: total concentration of rebaudiosides 400 ppm.
The conditions of assay [4]: cited from earlier work.

Rebaudioside B [RB]: in assay [1], the Taste profile result was “tasted better than RA”. Moreover, in assay [1] (7/10 experts), the Bitterness entry was “less bitterness than RA” and the Sweetness result is listed as “lesser sweetness than RA”. In addition, the On-set profile result in assay [2] (compared with other steviol glycosides) is reported as “short on-set profile”.
Regarding `C=C1C[C@@]23CC[C@H]4[C@@](C)(CCC[C@@]4(C)C(=O)O[C@@H]4O[C@H](CO)[C@@H](O)[C@H](O)[C@H]4O[C@@H]4O[C@H](CO)[C@@H](O)[C@H](O)[C@H]4O)[C@@H]2CC[C@]1(O[C@@H]1O[C@H](CO)[C@@H](O)[C@H](O[C@@H]2O[C@H](CO)[C@@H](O)[C@H](O)[C@H]2O)[C@H]1O[C@@H]1O[C@H](CO)[C@@H](O)[C@H](O)[C@H]1O)C3` [Reb D, Rebaudioside D], in assay [3], the “Sensory taste profile on addition of Reb D” value is listed as “can improve sensory taste profile”.
In the case of `C=C1C[C@@]23CC[C@H]4[C@@](C)(CCC[C@@]4(C)C(=O)O[C@@H]4O[C@H](CO)[C@@H](O)[C@H](O)[C@H]4O)[C@@H]2CC[C@]1(O[C@@H]1O[C@H](CO)[C@@H](O)[C@H](O[C@@H]2O[C@H](CO)[C@@H](O)[C@H](O)[C@H]2O)[C@H]1O[C@@H]1O[C@H](CO)[C@@H](O)[C@H](O)[C@H]1O)C3` [RA, Rebaudioside A], the Bitterness result in assay [1] (7/10 experts) is given as “strong bitterness profile”. Besides, in assay [2] (aqueous solution), the “Concentration that provides maximum sweetness” value is listed as “About 250 ppm”. For the same compound, the “Concentration above which there is no increased perceived sweetness” value in assay [2] (in food products) is reported as “about 500 ppm”. The Bitterness and aftertaste result in assay [4] (100% purity RA, e.g. 500 ppm aqueous solution) was “appear strongly at higher concentrations”. Moreover, the Taste quality entry in assay [4] (increased sweetness and decreased bitterness, Phytochemistry 68, 2007) was “better than stevioside”.
